System: C. albicans SC5314
Test: Surface adhesion of C. albicans with simultaneous LreLTA and Hsp70 inhibitor VER-155008, crystal violet staining
Type: cell-based, Candida albicans
Details: SC5314 1×10^4 CFU/mL; LreLTA 30 μg/mL plus VER-155008 1, 10, 50 and 100 μM simultaneously; 24 hours; FIG. 4
Procedure: According to previous research, Hsp70 is known to play a role in controlling overall virulence factors and drug resistance in C. albicans, and thus, the inventors of the present disclosure conducted experiments by utilizing VER-155008, which is an Hsp70 inhibitor.
In order to determine the effect of VER-155008 on reducing C. albicans surface adhesion by LreLTA, C. albicans SC5314 strain was cultured in YPD medium and prepared at 1×10^4 CFU/mL, and LreLTA at a single concentration of 30 μg/mL and VER-155008 at concentrations of 1, 10, 50 and 100 μM were simultaneously treated. After culturing for 24 hours, the degree of adhesion maintenance to the surface was compared by 0.1% crystal violet staining.

## N#Cc1ccc(COC[C@H]2O[C@@H](n3c(NCc4ccc(Cl)c(Cl)c4)nc4c(N)ncnc43)[C@H](O)[C@@H]2O)cc1 [VER-155008]
  effect on the surface adhesion reducing efficacy of LreLTA: the efficacy of reducing the surface adhesion of LreLTA was decreased

From US20250295681A1, “CANDIDA ANTIFUNGAL COMPOSITION COMPRISING LIPOTEICHOIC ACID” (SEOUL NATIONAL UNIVERSITY R&DB FOUNDATION, priority 2022, published 2025)
